Laboratory results as given in patent publication US20070191333A1, “Antibacterial agents” (Warner Lambert Company LLC, priority 2003, published 2007).
In brackets after ≈: the same amount, converted by molar mass. Where two headings read alike, the source gives them in different places.

What was measured:
Assay type in all cases: cell-based
H. influenzae HI-3542 = test: Antibacterial microtitration MIC, H. influenzae HI-3542; conditions: strain HI-3542; for MIC: Haemophilus influenzae, HI3542, Gram Negative Bacteria, read-out: Minimum Inhibitory Concentrations H. influenzae HI-3542
Procedure: (§1) Test A—Antibacterial Assays The compounds of the present invention were tested against an assortment of Gram-negative and Gram-positive organisms using standard microtitration techniques (Cohen et. al., Antimicrob., 1985; 28:766; Heifetz, et. al., Antimicrob., 1974; 6:124).

M. catarrhalis BC-3531 = test: Antibacterial microtitration MIC, M. catarrhalis BC-3531; conditions: strain BC-3531; for MIC: Moraxella catarrhalis, BC3531, Gram Negative Bacteria, read-out: Minimum Inhibitory Concentrations M. catarrhalis BC-3531
Procedure: as §1

E. coli 2026 = test: Antibacterial microtitration MIC, E. coli 2026; conditions: strain 2026; for MIC: read-out: Minimum Inhibitory Concentrations E. coli 2026
Procedure: as §1

E. faecalis MGH-2 = test: Antibacterial microtitration MIC, E. faecalis MGH-2; conditions: strain MGH-2; for MIC: Enterococcus faecalis, MGH2, Gram Positive Bacteria, read-out: Minimum Inhibitory Concentrations E. faecalis MGH-2
Procedure: as §1

S. pneumo SV-1 = test: Antibacterial microtitration MIC, S. pneumo SV-1; conditions: Gram Positive Bacteria, strain SV-1; for MIC: read-out: Minimum Inhibitory Concentrations S. pneumo SV-1
Procedure: as §1

S. aureus UC-76 = test: Antibacterial microtitration MIC, S. aureus UC-76; conditions: strain UC-76; for MIC: Staphylococcus aureus, UC76, Gram Positive Bacteria, read-out: Minimum Inhibitory Concentrations S. aureus UC-76
Procedure: as §1

S pyogenes C203 = test: Antibacterial microtitration MIC, S pyogenes C203; conditions: Gram Positive Bacteria, strain C203; for MIC: read-out: Minimum Inhibitory Concentrations S pyogenes C203
Procedure: as §1

[1] = Escherichia coli, 2026, Gram Negative Bacteria

MIC (H. influenzae HI-3542) [µg/mL]	MIC (M. catarrhalis BC-3531) [µg/mL]	MIC (E. faecalis MGH-2) [µg/mL]	MIC (S. pneumo SV-1) [µg/mL]	MIC (S. aureus UC-76) [µg/mL]	MIC (S pyogenes C203) [µg/mL]	SMILES	further results
		4 (≈ 10.4 µM)	0.5 (≈ 1.29 µM)	1 (≈ 2.59 µM)	0.5 (≈ 1.29 µM)	Cc1c(N2CC[C@H]([C@H](N)CC#N)C2)c(F)cc2c(=O)n(N)c(=O)n(C3CC3)c12 (racemic) [drawing 406]	
16 (≈ 37.2 µM)	16 (≈ 37.2 µM)					COc1c(N2CC[C@@H]([C@H](C)NCCC#N)C2)c(F)cc2c(=O)n(N)c(=O)n(C3CC3)c12 (single isomer, unassigned) [drawing 400]	MIC (E. coli 2026; [1]): 64 µg/mL (≈ 149 µM)
64 (≈ 154 µM)	64 (≈ 154 µM)					COc1c(N2CC[C@@H]([C@H](C)NCCC#N)C2)c(F)cc2c(=O)[nH]c(=O)n(C3CC3)c12 (single isomer, unassigned) [drawing 401]	MIC (E. coli 2026; [1]): 64 µg/mL (≈ 154 µM)
		0.25 (≈ 0.647 µM)	0.06 (≈ 0.155 µM)	0.125 (≈ 0.323 µM)	0.03 (≈ 0.0776 µM)	Cc1c(N2CC[C@@H]([C@@H](N)CC#N)C2)c(F)cc2c(=O)n(N)c(=O)n(C3CC3)c12 (single isomer, unassigned) [drawing 407]	
		0.5 (≈ 1.35 µM)	0.125 (≈ 0.337 µM)	0.25 (≈ 0.673 µM)	0.125 (≈ 0.337 µM)	Cc1c(N2CC[C@@H]([C@@H](N)CC#N)C2)c(F)cc2c(=O)[nH]c(=O)n(C3CC3)c12 (single isomer, unassigned) [drawing 408]	
		0.125 (≈ 0.302 µM)	0.015 (≈ 0.0362 µM)	0.06 (≈ 0.145 µM)	0.03 (≈ 0.0724 µM)	Cc1c(N2CC[C@@H]([C@H](C)NCCC#N)C2)c(F)cc2c(=O)n(N)c(=O)n(C3CC3)c12 (single isomer, unassigned) [drawing 411]	
		1 (≈ 2.32 µM)	0.125 (≈ 0.29 µM)	0.25 (≈ 0.581 µM)	0.125 (≈ 0.29 µM)	COc1c(N2CC[C@@H]([C@H](C)NCCC#N)C2)c(F)cc2c(=O)n(N)c(=O)n(C3CC3)c12 (single isomer, unassigned) [drawing 417]	

More lines, now with the values behind:

SMILES	MIC (H. influenzae HI-3542) [µg/mL]	MIC (M. catarrhalis BC-3531) [µg/mL]	MIC (E. faecalis MGH-2) [µg/mL]	MIC (S. pneumo SV-1) [µg/mL]	MIC (S. aureus UC-76) [µg/mL]	MIC (S pyogenes C203) [µg/mL]	further results
Cc1c(N2CC[C@H]([C@H](N)CC#N)C2)c(F)cc2c(=O)n(N)c(=O)n(C3CC3)c12 (racemic) [drawing 389]	4 (≈ 10.4 µM)	16 (≈ 41.4 µM)					MIC (E. coli 2026; [1]): 32 µg/mL (≈ 82.8 µM)
Cc1c(N2C[C@H](CNCCC#N)[C@@H](F)C2)c(F)cc2c(=O)n(N)c(=O)n(C3CC3)c12 (racemic) [drawing 397]	8 (≈ 19.1 µM)	16 (≈ 38.2 µM)					MIC (E. coli 2026; Escherichia coli, Gram Negative Bacteria): 32 µg/mL (≈ 76.5 µM)
Cc1c(N2C[C@H](CNCCC#N)[C@@H](F)C2)c(F)cc2c(=O)n(N)c(=O)n(C3CC3)c12 (racemic) [drawing 414]			4 (≈ 9.56 µM)	1 (≈ 2.39 µM)	2 (≈ 4.78 µM)	1 (≈ 2.39 µM)	
Cc1c(N2C[C@@H](CNCCC#N)[C@H](C)C2)c(F)cc2c(=O)n(N)c(=O)n(C3CC3)c12 (single isomer, unassigned)			0.5 (≈ 1.21 µM)	0.06 (≈ 0.145 µM)	0.25 (≈ 0.603 µM)	0.06 (≈ 0.145 µM)	
Cc1c(N2C[C@H](CNCCC#N)[C@@H](C)C2)c(F)cc2c(=O)n(N)c(=O)n(C3CC3)c12 (single isomer, unassigned)			0.5 (≈ 1.21 µM)	0.125 (≈ 0.302 µM)	0.25 (≈ 0.603 µM)	0.125 (≈ 0.302 µM)	
Cc1c(N2CC[C@@H]([C@@H](N)CC#N)C2)c(F)cc2c(=O)n(N)c(=O)n(C3CC3)c12 (single isomer, unassigned) [drawing 390]	1 (≈ 2.59 µM)	2 (≈ 5.18 µM)					MIC (E. coli 2026; [1]): 8 µg/mL (≈ 20.7 µM)
Cc1c(N2CC[C@@H]([C@@H](N)CC#N)C2)c(F)cc2c(=O)[nH]c(=O)n(C3CC3)c12 (single isomer, unassigned) [drawing 391]	4 (≈ 10.8 µM)	4 (≈ 10.8 µM)					Minimum Inhibitory Concentrations E. coli 2026 (E. coli 2026; Gram Negative Bacteria): 32 µg/mL
Cc1c(N2CC[C@@H]([C@@H](N)CC#N)C2)c(F)cc2c(=O)[nH]c(=O)n(C3CC3)c12 (single isomer, unassigned) [drawing 392]							Minimum Inhibitory Concentrations H. influenzae HI-3542 (H. influenzae HI-3542; Gram Negative Bacteria): 2 µg/mL; Minimum Inhibitory Concentrations M. catarrhalis BC-3531 (M. catarrhalis BC-3531; Gram Negative Bacteria): 4 µg/mL; Minimum Inhibitory Concentrations E. coli 2026 (E. coli 2026; Gram Negative Bacteria): 8 µg/mL
Cc1c(N2CC[C@@H]([C@H](C)NCCC#N)C2)c(F)cc2c(=O)n(N)c(=O)n(C3CC3)c12 (single isomer, unassigned) [drawing 394]	0.5 (≈ 1.21 µM)	1 (≈ 2.41 µM)					MIC (E. coli 2026; [1]): 4 µg/mL (≈ 9.65 µM)
Cc1c(N2CC[C@@H]([C@@H](N)CC#N)C2)c(F)cc2c(=O)[nH]c(=O)n(C3CC3)c12 (single isomer, unassigned) [drawing 409]							Minimum Inhibitory Concentrations E. faecalis MGH-2 (E. faecalis MGH-2; Gram Positive Bacteria): 1 µg/mL; Minimum Inhibitory Concentrations S. pneumo SV-1 (S. pneumo SV-1): 0.125 µg/mL; Minimum Inhibitory Concentrations S. aureus UC-76 (S. aureus UC-76; Gram Positive Bacteria): 0.5 µg/mL; Minimum Inhibitory Concentrations S pyogenes C203 (S pyogenes C203): 0.25 µg/mL
